Results from PubChem BioAssay (NCI).
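96-well plates; 48 h exposure; 5 concentrations. Endpoints by linear interpolation between flanking doses. Not reached: highest tested concentration assigned. At the GI50, growth is halved. TGI: concentration producing complete growth inhibition.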

Key:
Assay in all cases: NCI anticancer screen, dose series, 48 h
CAKI-1 renal = tested on: CAKI-1 renal
PC-3 prostate = tested on: PC-3 prostate
COLO 205 colon = tested on: COLO 205 colon
UACC-257 melanoma = tested on: UACC-257 melanoma
MDA-MB-435 = tested on: MDA-MB-435
ACHN renal = tested on: ACHN renal
M14 melanoma = tested on: M14 melanoma
NCI-H460 lung = tested on: NCI-H460 lung
HL-60(TB) leukemia = tested on: HL-60(TB) leukemia
HCT-116 colon = tested on: HCT-116 colon
MDA-MB-231 breast = tested on: MDA-MB-231 breast
OVCAR-3 ovarian = tested on: OVCAR-3 ovarian
MALME-3M melanoma = tested on: MALME-3M melanoma
DU-145 prostate = tested on: DU-145 prostate
SF-295 CNS = tested on: SF-295 CNS
T-47D breast = tested on: T-47D breast
786-0 renal = tested on: 786-0 renal
HOP-92 NSCLC = tested on: HOP-92 NSCLC
OVCAR-8 ovarian = tested on: OVCAR-8 ovarian
OVCAR-5 ovarian = tested on: OVCAR-5 ovarian
BT-549 breast = tested on: BT-549 breast
A498 renal = tested on: A498 renal
RXF 393 renal = tested on: RXF 393 renal
HCT-15 colon = tested on: HCT-15 colon
SK-MEL-5 melanoma = tested on: SK-MEL-5 melanoma
OVCAR-4 ovarian = tested on: OVCAR-4 ovarian
TK-10 renal = tested on: TK-10 renal
UO-31 renal = tested on: UO-31 renal
HCC-2998 colon = tested on: HCC-2998 colon
NCI-H226 lung = tested on: NCI-H226 lung
SW-620 colon = tested on: SW-620 colon
SF-268 CNS = tested on: SF-268 CNS
KM12 colon = tested on: KM12 colon
NCI/ADR-RES ovarian = tested on: NCI/ADR-RES ovarian
SF-539 CNS = tested on: SF-539 CNS
SN12C renal = tested on: SN12C renal
SNB-19 CNS = tested on: SNB-19 CNS
SNB-75 CNS = tested on: SNB-75 CNS
SK-MEL-28 melanoma = tested on: SK-MEL-28 melanoma
NCI-H23 lung = tested on: NCI-H23 lung
HS 578T breast = tested on: HS 578T breast
SK-MEL-2 melanoma = tested on: SK-MEL-2 melanoma
EKVX NSCLC = tested on: EKVX NSCLC
UACC-62 melanoma = tested on: UACC-62 melanoma

NCCCNc1nc2ccccc2c2c(=O)c3cc(F)cc(F)c3sc12
GI50 (CAKI-1 renal): 1860 nM | TGI (CAKI-1 renal): 4180 nM | GI50 (PC-3 prostate): 1670 nM | TGI (PC-3 prostate): 3240 nM | GI50 (COLO 205 colon): 1920 nM | TGI (COLO 205 colon): 4620 nM | GI50 (UACC-257 melanoma): 1880 nM | TGI (UACC-257 melanoma): 4180 nM | GI50 (MDA-MB-435): 1630 nM | TGI (MDA-MB-435): 3020 nM | GI50 (ACHN renal): 1650 nM | TGI (ACHN renal): 3060 nM | GI50 (M14 melanoma): 1790 nM | TGI (M14 melanoma): 3300 nM | GI50 (NCI-H460 lung): 1580 nM | TGI (NCI-H460 lung): 3140 nM | GI50 (HL-60(TB) leukemia): 2080 nM | TGI (HL-60(TB) leukemia): 4200 nM | GI50 (HCT-116 colon): 1670 nM | TGI (HCT-116 colon): 3280 nM | GI50 (MDA-MB-231 breast): 1490 nM | TGI (MDA-MB-231 breast): 3020 nM | GI50 (OVCAR-3 ovarian): 1720 nM | TGI (OVCAR-3 ovarian): 3190 nM | GI50 (MALME-3M melanoma): 1620 nM | TGI (MALME-3M melanoma): 3210 nM | GI50 (DU-145 prostate): 1710 nM | TGI (DU-145 prostate): 3190 nM | GI50 (SF-295 CNS): 1990 nM | TGI (SF-295 CNS): 4060 nM | GI50 (T-47D breast): 16200 nM | TGI (T-47D breast): 55400 nM | GI50 (786-0 renal): 1490 nM | TGI (786-0 renal): 3120 nM | GI50 (HOP-92 NSCLC): 1650 nM | TGI (HOP-92 NSCLC): 12600 nM | GI50 (OVCAR-8 ovarian): 2100 nM | TGI (OVCAR-8 ovarian): 5140 nM | GI50 (OVCAR-5 ovarian): 1600 nM | TGI (OVCAR-5 ovarian): 3030 nM | GI50 (BT-549 breast): 13000 nM | TGI (BT-549 breast): 26800 nM | GI50 (A498 renal): 1380 nM | TGI (A498 renal): 2930 nM | GI50 (RXF 393 renal): 1420 nM | TGI (RXF 393 renal): 2970 nM | GI50 (HCT-15 colon): 1600 nM | TGI (HCT-15 colon): 3140 nM | GI50 (SK-MEL-5 melanoma): 1680 nM | TGI (SK-MEL-5 melanoma): 3090 nM | GI50 (OVCAR-4 ovarian): 1750 nM | TGI (OVCAR-4 ovarian): 3610 nM | GI50 (TK-10 renal): 1690 nM | TGI (TK-10 renal): 3180 nM | GI50 (UO-31 renal): 1480 nM | TGI (UO-31 renal): 2880 nM | GI50 (HCC-2998 colon): 1690 nM | TGI (HCC-2998 colon): 3360 nM | GI50 (NCI-H226 lung): 10900 nM | TGI (NCI-H226 lung): 29100 nM | GI50 (SW-620 colon): 1640 nM | TGI (SW-620 colon): 3190 nM | GI50 (SF-268 CNS): 1630 nM | TGI (SF-268 CNS): 3320 nM | GI50 (KM12 colon): 1740 nM | TGI (KM12 colon): 3260 nM | GI50 (NCI/ADR-RES ovarian): 1810 nM | TGI (NCI/ADR-RES ovarian): 3690 nM | GI50 (SF-539 CNS): 1770 nM | TGI (SF-539 CNS): 3240 nM | GI50 (SN12C renal): 1680 nM | TGI (SN12C renal): 3270 nM | GI50 (SNB-19 CNS): 1700 nM | TGI (SNB-19 CNS): 3230 nM | GI50 (SNB-75 CNS): 1360 nM | TGI (SNB-75 CNS): 2700 nM | GI50 (SK-MEL-28 melanoma): 1860 nM | TGI (SK-MEL-28 melanoma): 3390 nM | GI50 (NCI-H23 lung): 1780 nM | TGI (NCI-H23 lung): 3360 nM | GI50 (HS 578T breast): 1470 nM | TGI (HS 578T breast): 3090 nM | GI50 (SK-MEL-2 melanoma): 2670 nM | TGI (SK-MEL-2 melanoma): 7040 nM | GI50 (EKVX NSCLC): 1600 nM | TGI (EKVX NSCLC): 3120 nM | GI50 (UACC-62 melanoma): 1810 nM | TGI (UACC-62 melanoma): 3480 nM
